Laboratory results published in US20220372542A1, “DETECTION OF ANALYTES BY PROTEIN SWITCHES” (priority 2019, published 2022).

Columns and labels:
[1] = biological target: glucose dehydrogenase protein switch GDH-2004, GDH-105 variant (Bacillus subtilis, UniProt P12310); experiment: screen of GDH variants for glucose activity against analytes; assay type: biochemical
Procedure: (§1) Glucose dehydrogenase (GDH) variant libraries comprising GDH polypeptides developed using GDH-105 (Codexis, Redwood, Calif.) as a backbone were prepared. Approximately 2800 GDH variants were prepared. Glucose activity was determined by either NADH kinetic assay using a spectrophotometer set at UV 340 or UV 360 at various time intervals or by endpoint measurement of gluconic acid using RapidFire mass spectrometer.

[2] = biological target: glucose dehydrogenase protein switch GDH-2005, GDH-105 variant (Bacillus subtilis, UniProt P12310); experiment: as above; assay type: biochemical; settings: cortisol 2.08 mM, pH 7.5, NADH kinetics at UV340
Procedure: as §1

[3] = biological target: glucose dehydrogenase protein switch GDH-2010, GDH-105 variant (Bacillus subtilis, UniProt P12310); experiment: as above; assay type: biochemical; settings: methotrexate 5.42 mM, pH 7.0, gluconic acid by RapidFire MS
Procedure: as §1

[4] = biological target: glucose dehydrogenase protein switch GDH-2008, GDH-105 variant (Bacillus subtilis, UniProt P12310); experiment: as above; assay type: biochemical; settings: methotrexate 5.42 mM, pH 7.0, gluconic acid by RapidFire MS
Procedure: as §1

[5] = biological target: glucose dehydrogenase protein switch GDH-2009, GDH-105 variant (Bacillus subtilis, UniProt P12310); experiment: as above; assay type: biochemical
Procedure: as §1

[6] = biological target: glucose dehydrogenase protein switch GDH-2007, GDH-105 variant (Bacillus subtilis, UniProt P12310); experiment: as above; assay type: biochemical; settings: methotrexate 5.42 mM, pH 7.0, gluconic acid by RapidFire MS
Procedure: as §1

[7] = biological target: T1, glucose dehydrogenase protein switch GDH-2016 (Rd2bb), GDH-105 variant, SEQ ID NO: 11 (Bacillus subtilis, UniProt P12310, A159T/E170K/E96C/F155A/I165M/P194T/Q252L/V156S); experiment: biochemical; settings: read-out: inhibition at 300 uM warfarin
T1 construct: electrode sensor and screen
Procedure: (§2) Experimental GDH-105 and GDH-2016 glucose-responsive active areas were prepared using a single-layer active area system. The GDH was obtained from Codexis, Redwood City, Calif. The active area was coated onto a carbon working electrode in a single layer composition (Table 8). Following deposition of the active area, the active area was cured for three days at RT.
(§3) Experimental procedure. Testing of the GDH-105 and GDH-2016 sensors was conducted by immersing the electrode in a 100 mM PBS buffer solution at 33° C. NAD^+ (5 mM) supplied to a test beaker containing PBS buffer followed by the addition of glucose (1 mM).

[8] = biological target: T1, glucose dehydrogenase protein switch GDH-2016 (Rd2bb), GDH-105 variant, SEQ ID NO: 11; assay type: biochemical; settings: warfarin 2.08 mM, pH 7.0, NADH kinetics at UV360
Procedure: as §1

[9] = biological target: glucose dehydrogenase protein switch GDH-2013, GDH-105 variant (Bacillus subtilis, UniProt P12310); experiment: screen of GDH variants for glucose activity against analytes; assay type: biochemical; settings: warfarin 2.08 mM, pH 7.0, NADH kinetics at UV360
Procedure: as §1

[10] = biological target: T2, glucose dehydrogenase GDH-105 (control, backbone) (Bacillus subtilis, UniProt P12310, E198G/I165M/P194T); experiment: warfarin inhibition of GDH sensor (FIGS. 9A and 9B); assay type: biochemical; settings: 10, 30, 80, 180, and 300 uM warfarin; NAD+ 5 mM, glucose 1 mM, 33° C.
Procedure: as §2, with “Warfarin Sensor. Experimental” for “Experimental”
as §3

[11] = biological target: T2, glucose dehydrogenase GDH-105 (control, backbone); experiment: warfarin inhibition of evolved GDH sensors (Table 13); assay type: biochemical; settings: NAD+ 10 mM, glucose 5 mM, 33° C.
Procedure: (§4) Evolved Warfarin sensors. GDH-105, GDH-2016, GDH-2025, GDH-2026, GDH-2027, and GDH-2028 glucose-responsive active areas were prepared using a single-layer active area system. The GDH was obtained from Codexis, Redwood City, Calif. The active area (0.33 mm^2) was coated onto a carbon working electrode in a single layer composition (Table 8). Following deposition of the active area, the active area was cured for three days at room temperature.
(§5) Experimental procedure. Testing of the GDH-105, GDH-2016, GDH-2025, GDH-2026, GDH-2027, and GDH-2028 sensors was conducted by immersing the electrode in a 100 mM PBS buffer solution at 33° C. NAD^+(10 mM) supplied to a test beaker containing PBS buffer followed by the addition of glucose (5 mM).

[12] = biological target: glucose dehydrogenase protein switch GDH-2026, variant of GDH-2016, C96F; I141V, SEQ ID NO: 7 (Bacillus subtilis, UniProt P12310, A159T/E170K/E96F/F155A/I141V/I165M/P194T/Q252L/V156S); experiment: as above; assay type: biochemical; settings: NAD+ 10 mM, glucose 5 mM, 100 mM PBS, 33° C.
Procedure: as §4, §5

[13] = biological target: glucose dehydrogenase protein switch GDH-2025 (Rd3bb), variant of GDH-2016, C96F, SEQ ID NO: 1 (Bacillus subtilis, UniProt P12310, A159T/E170K/E96F/F155A/I165M/P194T/Q252L/V156S); experiment: as above; assay type: biochemical; settings: NAD+ 10 mM, glucose 5 mM, 100 mM PBS, 33° C.
Procedure: as §4, §5

[14] = biological target: glucose dehydrogenase protein switch GDH-2027, variant of GDH-2025, C96F; A173G, SEQ ID NO: 12 (Bacillus subtilis, UniProt P12310, A159T/A173G/E170K/E96F/F155A/I165M/P194T/Q252L/V156S); experiment: as above; assay type: biochemical; settings: NAD+ 10 mM, glucose 5 mM, 100 mM PBS, 33° C.
Procedure: as §4, §5

[15] = biological target: glucose dehydrogenase protein switch GDH-2028 (Rd4bb), variant of GDH-2025, C96F; L252V, SEQ ID NO: 15 (Bacillus subtilis, UniProt P12310, A159T/E170K/E96F/F155A/I165M/P194T/Q252V/V156S); experiment: as above; assay type: biochemical; settings: NAD+ 10 mM, glucose 5 mM, 100 mM PBS, 33° C.
Procedure: as §4, §5

[16] = methotrexate 5.42 mM, pH 7.0, gluconic acid by RapidFire MS
[17] = warfarin 2.08 mM, pH 7.0, NADH kinetics at UV360

SMILES: C[C@]12CCC(=O)C=C1CC[C@@H]1[C@@H]2[C@@H](O)C[C@@]2(C)[C@H]1CC[C@]2(O)C(=O)CO [Cortisol]
- Activate/Inhibit (glucose activity) ([1]; cortisol 2.08 mM, pH 7.5, NADH kinetics at UV340): Inhibit
- Activate/Inhibit (glucose activity) [2]: Inhibit

SMILES: CN(Cc1cnc2nc(N)nc(N)c2n1)c1ccc(C(=O)N[C@@H](CCC(=O)O)C(=O)O)cc1 [Methotrexate]
- Activate/Inhibit (glucose activity) [3]: Inhibit
- Activate/Inhibit (glucose activity) [4]: Inhibit
- Activate/Inhibit (glucose activity) [1, 16]: Inhibit
- Activate/Inhibit (glucose activity) [5, 16]: Inhibit
- Activate/Inhibit (glucose activity) [6]: Inhibit

SMILES: CC(=O)CC(c1ccccc1)c1c(O)c2ccccc2oc1=O (stereo not shown) [Warfarin, warfarin]
- inhibition at 300 µM [7]: ~55%
- Activate/Inhibit (glucose activity) [8]: Inhibit
- Activate/Inhibit (glucose activity) [1, 17]: Inhibit
- Activate/Inhibit (glucose activity) [9]: Inhibit
- Activate/Inhibit (glucose activity) [5, 17]: Inhibit
- inhibition of the sensor to increasing warfarin concentrations [10]: not affected
- GDH inhibition at 0.3 mM WF ([11]; 0.3 mM WF, 100 mM PBS): 5%
- inhibition to increasing warfarin concentrations ([11]; 10, 30, 80, 180, and 300 uM warfarin): remained unaffected
- GDH inhibition at 0.3 mM WF [12]: 78%
- GDH inhibition at 0.3 mM WF [13]: 79%
- GDH inhibition at 0.3 mM WF [14]: 79%
- GDH inhibition at 0.3 mM WF [15]: 84%
